Experimental findings from ChEMBL document CHEMBL1132087, “New N-substituted 7-aminocephalosporanic acid derivatives as potential agents against Streptococcus pneumoniae. Synthesis and in vitro activity” (1999) are described below.

For orientation: MIC means the lowest concentration that inhibits growth of the organism. The low end stands for greater potency, the high end for weaker potency.

Holding throughout (format): functional
Assay [1] deals with Staphylococcus aureus. Briefly: In vitro antibacterial activity against the gram-positive bacteria, penicillin sensitive Staphylococcus aureus (3849).
Assay [2] relates to Streptococcus pneumoniae. Briefly: In vitro antibacterial activity against the gram-positive bacteria, penicillin sensitive Streptococcus pneumoniae (3512).
Assay [3] concerns Staphylococcus aureus. Briefly: In vitro antibacterial activity against the gram-positive bacteria, penicillin sensitive Staphylococcus aureus (663E).
Assay [4] deals with Streptococcus pneumoniae. The experiment in a line: In vitro antibacterial activity against the gram-positive bacteria, penicillin resistant Streptococcus pneumoniae (4629).
Assay [5] deals with Streptococcus pneumoniae. The experiment in a line: In vitro antibacterial activity against the gram-positive bacteria, penicillin resistant Streptococcus pneumoniae (4636).
In assay [6] the test system is Staphylococcus aureus. Briefly: In vitro antibacterial activity against the gram-positive bacteria, penicillin sensitive Staphylococcus aureus (3072).
Another assay relates to Streptococcus pyogenes. Briefly: In vitro antibacterial activity against the gram-positive bacteria, erythromycin resistant Streptococcus pyogenes.
Assay [7] relates to Streptococcus pneumoniae. Briefly: In vitro antibacterial activity against the gram-positive bacteria, penicillin resistant Streptococcus pneumoniae (4630).
The subject of assay [8] is Staphylococcus aureus. Briefly: In vitro antibacterial activity against the gram-positive bacteria, penicillin resistant Staphylococcus aureus (2619).
The test system of assay [9] is Streptococcus pneumoniae. The experiment in a line: In vitro antibacterial activity against the gram-positive bacteria, penicillin resistant Streptococcus pneumoniae (4635).
Assay [10] concerns Staphylococcus aureus. The experiment in a line: In vitro antibacterial activity against the gram-positive bacteria, penicillin resistant Staphylococcus aureus (2672).
The subject of assay [11] is Staphylococcus aureus. The experiment in a line: In vitro antibacterial activity against the gram-positive bacteria, penicillin resistant Staphylococcus aureus (853).
The test system of assay [12] is Streptococcus pneumoniae. Briefly: In vitro antibacterial activity against the gram-positive bacteria, penicillin sensitive Streptococcus pneumoniae (3272).
Assay [13] deals with Streptococcus pneumoniae. Briefly: In vitro antibacterial activity against the gram-positive bacteria, penicillin sensitive Streptococcus pneumoniae (3273).

Structures are written as SMILES. Converted amounts (≈) assume the structure as drawn.

As to `N[C@@H](C(=O)N[C@@H]1C(=O)N2C(C(=O)O)=C(Cl)CS[C@H]12)c1ccccc1` [CEFACLOR ANHYDROUS], the MIC against Staphylococcus aureus [1] was determined as 1 µg/mL (≈ 2.72 µM); in the assay with Streptococcus pneumoniae [2] it was 1 µg/mL (≈ 2.72 µM); against Staphylococcus aureus [3], 1 µg/mL (≈ 2.72 µM); against Streptococcus pneumoniae [4], 32 µg/mL (≈ 87 µM); in the assay with Streptococcus pneumoniae [5], 16 µg/mL (≈ 43.5 µM); in the assay with Staphylococcus aureus [6], 4 µg/mL (≈ 10.9 µM). Further, the MIC against Streptococcus pyogenes was 0.5 µg/mL (≈ 1.36 µM); in the assay with Streptococcus pneumoniae [7] it was 16 µg/mL (≈ 43.5 µM); against Staphylococcus aureus [8], 16 µg/mL (≈ 43.5 µM); in the assay with Streptococcus pneumoniae [9], 16 µg/mL (≈ 43.5 µM); against Staphylococcus aureus [10], 64 µg/mL (≈ 174 µM); in the assay on Staphylococcus aureus [11], 64 µg/mL (≈ 174 µM). In addition, the MIC in the assay on Streptococcus pneumoniae [12] amounted to 1 µg/mL (≈ 2.72 µM); against Streptococcus pneumoniae [13] it was 0.5 µg/mL (≈ 1.36 µM).
Turning to `CO/N=C(\C(=O)N[C@@H]1C(=O)N2C(C(=O)[O-])=C(C[n+]3cccc4c3CCC4)CS[C@H]12)c1csc(N)n1` [CEFPIROME], the MIC in the assay on Staphylococcus aureus [1] was 1 µg/mL (≈ 1.94 µM); against Streptococcus pneumoniae [2], 0.06 µg/mL (≈ 0.117 µM); against Staphylococcus aureus [3] it was 1 µg/mL (≈ 1.94 µM); in the assay with Streptococcus pneumoniae [4], 2 µg/mL (≈ 3.89 µM); against Streptococcus pneumoniae [5], under 0.5 µg/mL; in the assay with Staphylococcus aureus [6], 1 µg/mL (≈ 1.94 µM). For the same compound, the MIC in the assay with Streptococcus pyogenes is 0.03 µg/mL (≈ 0.0583 µM); in the assay with Streptococcus pneumoniae [7], 1 µg/mL (≈ 1.94 µM); in the assay on Staphylococcus aureus [8], 2 µg/mL (≈ 3.89 µM); in the assay with Streptococcus pneumoniae [9], under 0.5 µg/mL; against Staphylococcus aureus [10], 2 µg/mL (≈ 3.89 µM); against Staphylococcus aureus [11] it was 2 µg/mL (≈ 3.89 µM). In addition, the MIC against Streptococcus pneumoniae [12] and with Streptococcus pneumoniae [13] was 0.06 µg/mL (≈ 0.117 µM) in each case.
Consider `CO/N=C(\C(=O)N[C@@H]1C(=O)N2C(C(=O)O)=C(CSc3nc(=O)c(O)nn3C)CS[C@H]12)c1csc(N)n1` [CEFTRIAXONE], for which the MIC stood at 2 µg/mL (≈ 3.61 µM) in the assay with Staphylococcus aureus [1]; 0.03 µg/mL (≈ 0.0541 µM) against Streptococcus pneumoniae [2]; 2 µg/mL (≈ 3.61 µM) in the assay with Staphylococcus aureus [3]; 4 µg/mL (≈ 7.21 µM) against Streptococcus pneumoniae [4]; 1 µg/mL (≈ 1.8 µM) in the assay on Streptococcus pneumoniae [5]; 4 µg/mL (≈ 7.21 µM) in the assay with Staphylococcus aureus [6]. Besides, the MIC is 0.06 µg/mL (≈ 0.108 µM) in the assay with Streptococcus pyogenes; 2 µg/mL (≈ 3.61 µM) with Streptococcus pneumoniae [7]; 4 µg/mL (≈ 7.21 µM) in the assay on Staphylococcus aureus [8]; 1 µg/mL (≈ 1.8 µM) in the assay on Streptococcus pneumoniae [9]; 4 µg/mL (≈ 7.21 µM) in the assay on Staphylococcus aureus [10]; 4 µg/mL (≈ 7.21 µM) with Staphylococcus aureus [11]. Besides, the MIC with Streptococcus pneumoniae [12] and against Streptococcus pneumoniae [13] was 0.03 µg/mL (≈ 0.0541 µM) throughout.
On to `CO/N=C(\C(=O)N[C@@H]1C(=O)N2C(C(=O)O)=C(COC(N)=O)CS[C@H]12)c1ccco1` [CEFUROXIME], for which the MIC against Staphylococcus aureus [1] was found to be 1 µg/mL (≈ 2.36 µM); in the assay with Streptococcus pneumoniae [2], 0.06 µg/mL (≈ 0.141 µM); in the assay with Staphylococcus aureus [3] it was 1 µg/mL (≈ 2.36 µM); in the assay with Streptococcus pneumoniae [4], 32 µg/mL (≈ 75.4 µM); in the assay with Streptococcus pneumoniae [5] it was 16 µg/mL (≈ 37.7 µM); in the assay with Staphylococcus aureus [6], 2 µg/mL (≈ 4.71 µM). The MIC turned out to be 0.06 µg/mL (≈ 0.141 µM) in the assay with Streptococcus pyogenes; 16 µg/mL (≈ 37.7 µM) in the assay on Streptococcus pneumoniae [7]; 2 µg/mL (≈ 4.71 µM) with Staphylococcus aureus [8]; 32 µg/mL (≈ 75.4 µM) in the assay on Streptococcus pneumoniae [9]; 2 µg/mL (≈ 4.71 µM) in the assay with Staphylococcus aureus [10]; 2 µg/mL (≈ 4.71 µM) with Staphylococcus aureus [11]. Besides, the MIC with Streptococcus pneumoniae [12] came out at 0.06 µg/mL (≈ 0.141 µM); with Streptococcus pneumoniae [13], 0.25 µg/mL (≈ 0.589 µM).
